Laboratory results: patent US5391744A (priority 1993, dated 1995)
Entries after “also recorded” stand apart in the source; their conditions may differ. Like-named read-outs stand apart in the source and are kept apart here.

Legend:
[1] = test system: rats trained to discriminate cocaine
dopamine transporter [2] = conditions: in words; literature; cited from earlier work
[3] = test system: rats trained to discriminate cocaine; assay: animal or person; conditions: Rattus norvegicus, ip, 0.25 h, read-out: ED50 (50% cocaine-lever responding)
nonhuman primates = conditions: in words; literature; cited from earlier work
[4] = molecular target: T1, dopamine transporter (high-affinity uptake of [^3 H]dopamine into striatal nerve endings) (Rattus norvegicus, UniProt P23977); assay: inhibition of high-affinity uptake of [^3 H]dopamine into striatal nerve endings (synaptosomes); assay type: biochemical
T1 construct: striatal nerve endings (synaptosomes); from tissue; host or cells: striatal nerve endings (synaptosomes)

dopamine transporter [5] = molecular target: T2, dopamine transporter (Rattus norvegicus, UniProt P23977); assay: displacement of [^3 H]mazindol binding from rat striatal membranes; conditions: for potency / affinity increase over cocaine, mazindol binding: relative to (-)-cocaine
dopamine transporter [6] = molecular target: T2, dopamine transporter; parameters: from tissue; host or cells: rat striatal membranes; conditions: 0.5 nM [^3 H]-1b; rat striata; F. I. Carroll et al.; cited from earlier work
[7] = dose-response test, 0.625 mg/kg, 15 min, mean ± S.E.M.
[8] = dose-response test, 1.25 mg/kg, 15 min, mean ± S.E.M.
[9] = dose-response test, 2.5 mg/kg, 15 min, mean ± S.E.M.
[10] = dose-response test, 5.0 mg/kg, 15 min, mean ± S.E.M.
[11] = dose-response test, 10.0 mg/kg, 15 min, mean ± S.E.M.
[12] = temporal test, 10.0 mg/kg, 5 min, mean ± S.E.M.
[13] = temporal test, 10.0 mg/kg, 15 min, mean ± S.E.M.
[14] = temporal test, 10.0 mg/kg, 60 min, mean ± S.E.M.
[15] = temporal test, 10.0 mg/kg, 120 min, mean ± S.E.M.
[16] = mean ± SE (N), striatal synaptosomes, read-out: IC50 [^3 H] Dopamine Uptake

T1 sequence (P23977 whole entry): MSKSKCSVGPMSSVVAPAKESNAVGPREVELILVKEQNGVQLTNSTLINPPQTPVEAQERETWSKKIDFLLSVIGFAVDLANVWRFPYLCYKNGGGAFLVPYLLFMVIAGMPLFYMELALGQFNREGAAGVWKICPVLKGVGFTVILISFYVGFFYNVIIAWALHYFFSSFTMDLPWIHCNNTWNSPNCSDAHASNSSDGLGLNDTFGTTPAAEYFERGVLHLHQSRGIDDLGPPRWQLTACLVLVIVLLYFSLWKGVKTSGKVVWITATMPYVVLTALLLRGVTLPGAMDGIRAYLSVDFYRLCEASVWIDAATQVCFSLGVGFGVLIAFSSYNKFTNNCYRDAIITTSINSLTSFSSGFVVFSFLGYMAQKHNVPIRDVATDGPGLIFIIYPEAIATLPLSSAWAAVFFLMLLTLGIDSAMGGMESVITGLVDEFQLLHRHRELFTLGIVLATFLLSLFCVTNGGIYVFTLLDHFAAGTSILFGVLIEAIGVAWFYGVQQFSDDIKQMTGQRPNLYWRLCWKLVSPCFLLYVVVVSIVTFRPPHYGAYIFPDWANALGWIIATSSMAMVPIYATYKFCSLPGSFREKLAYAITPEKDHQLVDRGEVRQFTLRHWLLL
T2 sequence (P23977 whole entry): as above

## COC(=O)[C@H]1[C@@H](OC(=O)c2ccccc2)C[C@@H]2CC[C@H]1N2C [(-)-cocaine, methyl 3-(benzoyloxy) -8-methyl-8-azabicyclo [3.2.1]octane-2 carboxylate, reference compound]
[1]; cocaine 10 mg/kg
  duration of complete cocaine-like response: approximately 60 min
  injection period eliciting complete cocaine-like response: 5 min
[1]; cocaine, 120 min injection period, in words
  response type at 120 min: elicited primarily saline-appropriate responding
[1]; dose-response test, 0.625 mg/kg, 15 min
  n/N (animals completing 20 responses / tested): 7/7
[1]; [7]
  % Drug responses: 6 ± 2%
  Rate (responses/min): 27.3 ± 5 responses/min
[1]; dose-response test, 1.25 mg/kg, 15 min
  n/N (animals completing 20 responses / tested): 7/7
[1]; [8]
  % Drug responses: 44 ± 18%
  Rate (responses/min): 21.3 ± 5 responses/min
[1]; dose-response test, 2.5 mg/kg, 15 min
  n/N (animals completing 20 responses / tested): 7/7
[1]; [9]
  % Drug responses: 61 ± 16%
  Rate (responses/min): 31.6 ± 16 responses/min
[1]; dose-response test, 5.0 mg/kg, 15 min
  n/N (animals completing 20 responses / tested): 7/7
[1]; [10]
  % Drug responses: 98 ± 2%
  Rate (responses/min): 89.0 ± 16 responses/min
[1]; dose-response test, 10.0 mg/kg, 15 min
  n/N (animals completing 20 responses / tested): 7/7
[1]; [11]
  % Drug responses: 99 ± 1%
  Rate (responses/min): 75.8 ± 13 responses/min
[1]; in words, across test doses
  response rates: fairly stable across all test doses
[1]; in words, dose-dependence over the tested doses
  substitution for the cocaine cue / drug-appropriate responding: increased in a dose-dependent manner
[1]; temporal test, 10.0 mg/kg, 5 min
  n/N (animals completing 20 responses / tested): 7/7
[1]; [12]
  % Drug responses: 85 ± 13%
  Rate (responses/min): 28.2 ± 8 responses/min
[1]; temporal test, 10.0 mg/kg, 15 min
  n/N (animals completing 20 responses / tested): 7/7
[1]; [13]
  % Drug responses: 99 ± 1%
  Rate (responses/min): 75.8 ± 13 responses/min
[1]; temporal test, 10.0 mg/kg, 30 min
  n/N (animals completing 20 responses / tested): 7/7
[1]; temporal test, 10.0 mg/kg, 30 min, mean
  % Drug responses: 100%
[1]; temporal test, 10.0 mg/kg, 30 min, mean ± S.E.M.
  Rate (responses/min): 60.6 ± 11 responses/min
[1]; temporal test, 10.0 mg/kg, 60 min
  n/N (animals completing 20 responses / tested): 7/7
[1]; [14]
  % Drug responses: 81 ± 14%
  Rate (responses/min): 23.0 ± 4 responses/min
[1]; temporal test, 10.0 mg/kg, 120 min
  n/N (animals completing 20 responses / tested): 7/7
[1]; [15]
  % Drug responses: 31 ± 18%
  Rate (responses/min): 27.7 ± 7 responses/min
Dopamine transporter [2]
  binding to / inhibition of the dopamine transporter: binds to the dopamine transporter and inhibits dopamine transport
[3]
  ED50: 1.7 mg/kg

## COC(=O)[C@H]1[C@@H](c2ccccc2)C[C@@H]2CC[C@H]1N2C [Compound 1a, 3β-phenyltropane-2β-carboxylic acid methyl ester]
Dopamine transporter [2]
  binding to / inhibition of the dopamine transporter: most potent compounds in binding and behavioral studies
Nonhuman primates
  potency in behavioral studies: most potent compounds in binding and behavioral studies

## CCOP(=O)(/C=C/[C@H]1[C@@H](OC(=O)c2ccccc2)C[C@@H]2CC[C@H]1N2C)OCC [Compound 2f, 3β-Benzoyloxy-2β-[(E)-2-(diethoxyphosphono)vinyl]tropane]
[4]
  IC50: 5500 ± 70 nM
[4]; in words
  inhibition of dopamine uptake: found to inhibit dopamine uptake
[4]; relative to (-)-cocaine
  fold less potent than cocaine, dopamine uptake: about 10 fold
Dopamine transporter [5]
  IC50: 4850 ± 470 nM

## COC(=O)[C@H]1[C@@H](c2ccc(F)cc2)C[C@@H]2CC[C@H]1N2C [Compound 1b, 3β-(p-fluorophenyl)tropane-2β-carboxylic acid methyl ether]
Dopamine transporter [2]
  binding to / inhibition of the dopamine transporter: most potent compounds in binding and behavioral studies
Nonhuman primates
  potency in behavioral studies: most potent compounds in binding and behavioral studies

## CN1[C@H]2CC[C@@H]1[C@@H](/C=C/Cl)[C@@H](OC(=O)c1ccccc1)C2 [Compound 2b, 3β-(Benzoyloxy)-2β-[(E)-2-chlorovinyl]tropane]
[4]; [16]
  IC50: 368 ± 190 nM
Dopamine transporter [5]
  potency / affinity increase over cocaine, mazindol binding: approximate twofold higher affinity; also recorded: about two-fold more potent than cocaine

## COC(=O)[C@H]1[C@@H](c2ccc(Cl)cc2)C[C@@H]2CC[C@H]1N2C [Compound 1d, 3β-(p-chlorophenyl)tropane-2β-carboxylic acid methyl ester, reference compound]
[4]
  IC50: 3.2 ± 0.1 nM
Dopamine transporter [6]
  potency relative to (-)-cocaine, inhibition of [^3 H]-1b binding: 85 times
Dopamine transporter [5]
  IC50: 1.7 ± 0.1 nM

## CCOC(=O)/C=C/[C@H]1[C@@H](OC(=O)c2ccccc2)C[C@@H]2CC[C@H]1N2C [Compound 2e, 3β-(Benzoyloxy)-2β-[(E)-2-(ethoxycarbonyl)vinyl]tropane]
[4]; [16]
  IC50: 310 ± 10 nM
[4]; relative to (-)-cocaine
  potency increase over cocaine, dopamine uptake: 4-5 times
Dopamine transporter [5]
  IC50: 50 ± 10 nM
  potency / affinity increase over cocaine, mazindol binding: 4-5 fold

## COC(=O)[C@H]1[C@@H](c2ccc(I)cc2)C[C@@H]2CC[C@H]1N2C [Compound 1c]
Dopamine transporter [6]
  potency relative to (-)-cocaine, inhibition of [^3 H]-1b binding: 78 times

## OC1(c2ccc(Cl)cc2)c2ccccc2C2=NCCN21 (stereo not drawn) [mazindol]
Dopamine transporter [2]
  binding to / inhibition of the dopamine transporter: potent inhibitors of binding at the transport site for dopamine
Nonhuman primates
  potency in maintaining self-administration: potent in maintaining self-administration

## CN1[C@H]2CC[C@@H]1[C@@H](/C=C/Cl)[C@@H](c1ccc(Cl)cc1)C2 [Compound 2d, 3β-(4-Chlorophenyl)-2β-[(E)-2-chlorovinyl]tropane]
[4]
  IC50: 1.26 ± 0.3 nM
Dopamine transporter [5]
  IC50: 0.72 ± 0.06 nM
Dopamine transporter [5]; relative to 2c, binding affinity
  potency of 2d relative to 2c: doubling the potency

## COC(=O)C(c1ccccc1)C1CCCCN1 (stereo not drawn) [methylphendiate]
Dopamine transporter [2]
  binding to / inhibition of the dopamine transporter: potent inhibitors of binding at the transport site for dopamine
Nonhuman primates
  potency in maintaining self-administration: potent in maintaining self-administration

## CN1Cc2c(N)cccc2C(c2ccccc2)C1 (stereo not drawn) [nomifensine]
Nonhuman primates
  potency in maintaining self-administration: potent in maintaining self-administration

## C=C[C@H]1[C@@H](OC(=O)c2ccccc2)C[C@@H]2CC[C@H]1N2C [Compound 2a, 3β-(Benzoyloxy)-2β-vinyltropane]
[4]; [16]
  IC50: 1120 ± 390 nM
[4]; relative to (-)-cocaine
  fold less potent than cocaine, dopamine uptake: two-fold less potent
Dopamine transporter [5]; Table I data, in words
  activity relative to parent structure (cocaine): not substantially less active than the parent structure
